“And” between values parts separate entries of the source, which are not always exact repeats. Equal values may be shown once.
System: not listed separately
Test: DPPH radical scavenging test
Conditions: compound at 1 mg/mL, 30 min, 517 nm; mean ± SEM
Experimental: The DPPH assay is widely used, and the simplest and fastest in vitro method for evaluating the antioxidant power of extracts or isolated compounds; it is based on the depletion of the 2,2-diphenyl-1-picrylhydrazyl radical (DPPH˙) by an antioxidant molecule with scavenger activity. This is an extremely sensitive test that can detect the activity of active ingredients present in very low concentrations.
The procedure used was adapted from Wang et al.. Briefly, 0.750 mL of a methanolic solution of each tested compound was treated with 1.5 mL of DPPH solution (0.004%) in MeOH. Samples were stored in the dark at room temperature for 30 min, and the absorbance value was read with a spectrophotometer at 517 nm, which is the maximum peak of absorbance relative to the DPPH radical absorption spectra. The values obtained were fitted into Equation (1) and converted to inhibition percentage (%) of the radical:DPPH inhibition percentage (%) = 100 × [1 − A1/A0](1) where A1 and A0 were, respectively, the absorbance recorded with and without the sample, which are directly proportional to DPPH residual concentration in the sample and DPPH concentration in the control (0.750 of MeOH and 1.5 mL of DPPH solution). […] A linear regression was performed to calculate the sample concentration able to eliminate 50% of DPPH free radicals.
For `COc1cc(/C=N/NC(=O)c2nc3ccccc3s2)ccc1O` [BZTidr6, (E)-N′-(3-methoxy-4-hydroxybenzylidene)benzo[d]thiazole-2-carbohydrazide], the “DPPH (% Inhibition)” value was >90.00%.
For `O=C(O)/C=C/c1ccc(O)c(O)c1` [Caffeic acid, reference compound], the “DPPH (% Inhibition)” value was 79.95 ± 0.88%.
With `O=S(=O)(O)c1ccc2nc(-c3ccccc3)[nH]c2c1` [PBSA, 2-phenyl-1-H-benzimidazole-5-sulfonic acid, reference compound] the “DPPH (% Inhibition)” value was “<LOQ *”.

Same assay, conditions: mean ± SEM
For `COc1cc(/C=N/NC(=O)c2nc3ccccc3s2)ccc1O` [BZTidr6, (E)-N′-(3-methoxy-4-hydroxybenzylidene)benzo[d]thiazole-2-carbohydrazide], the “DPPH IC50” value was 26.22 ± 1.81 µg/mL.
In the case of `O=C(O)/C=C/c1ccc(O)c(O)c1` [Caffeic acid, reference compound], the “DPPH IC50” value is reported as 5.26 ± 0.41 µg/mL.

System: not listed separately
Test: FRAP (Ferric Reducing Antioxidant Power) assay
Conditions: Trolox standard, 37 °C 10 min, 593 nm; mean ± SEM
Source text: The FRAP (Ferric Reducing Antioxidant Power) test allows the measurement of the ability of antioxidants to reduce ferric ion to ferrous. This method represents one of the simplest, quickest and least expensive methods for the determination of reducing properties on oxidized species in vitro.
The FRAP test (Ferric Reducing Antioxidant Power) is based on a colorimetric reaction and evaluates the ability of a sample of reducing ferric ions to ferrous ion while complexed with TPTZ (2,4,6-trispyridil-s-triazine). The FRAP solution was prepared from 0.1 M acetate buffer (pH 3.6), 10 mmol/L of TPTZ in 40 mM HCl, and 20 mM solution of FeCl3, with a 10:1:1 ratio, as described. Then, 1.9 mL of this solution was incubated with 0.1 mL of the sample solution at 37 °C for 10 min. The absorbance was read with a UV-Vis spectrophotometer at a 593 nm wavelength, relative to the maximum peak of absorbance of Fe^2+-TPTZ complex. Trolox® was used as a standard and the results are expressed as µmolTE/g.
For `COc1cc(/C=N/NC(=O)c2nc3ccccc3s2)ccc1O` [BZTidr6, (E)-N′-(3-methoxy-4-hydroxybenzylidene)benzo[d]thiazole-2-carbohydrazide], the FRAP was 3826.51 ± 90.60 µmolTE/g.
In the case of `O=C(O)/C=C/c1ccc(O)c(O)c1` [Caffeic acid, reference compound], the FRAP is reported as 10,160.24 ± 21.48 µmolTE/g.
With `O=S(=O)(O)c1ccc2nc(-c3ccccc3)[nH]c2c1` [PBSA, 2-phenyl-1-H-benzimidazole-5-sulfonic acid, reference compound] the FRAP was “<LOQ *”.

System: not listed separately
Test: UV spectra in solution (MeOH-DMSO): λmax and molar extinction coefficient
Format: physicochemical
Conditions: at λmax, Lambert-Beer equation; in M-1 cm-1 (unit assumed)
Experimental: We next investigated the protective potential against UV radiation of each compound. Specifically, in vitro tests were conducted to determine the parameters related to absorption in the UV spectrum and those fundamental to the relative evaluation of the filtering potential and thus candidature as possible UV sunscreen ingredients of the candidates under examination, including λ critical and SPF (sun protection factor). Since the SPF is correlated to the UV quantitative absorption of the substances, the wavelength of maximum absorption (λmax) and the molar extinction coefficient (ε) of the derivatives in solution (MeOH-DMSO) were evaluated (Figures S1 and S2, Supplementary Materials). The UV spectra of the compounds BZTidr1–6 and BZTcin1–5 were recorded in the UVA-UVB range (290–400 nm) to evaluate their profile and compare it to that of the PBSA, a commercial UVB filter that has a λmax of 302 nm. After this peak, the absorbance of PBSA drops, reaching almost zero in the 325 nm range, and thus not providing absorption in the UVA region.
Once the λmax of each derivative was established, the molar extinction coefficient ε was calculated by applying the Lambert-Beer equation (Table S1, Supplementary Materials): the higher this value, the greater the ability of the compound under examination to absorb UV radiation. […] The excellent values of BZTidr1, BZTidr2 and BZTidr3 are ascribed to the aforementioned hyperchromic shift. In regard to the BZTcin1–5 series, the molar extinction coefficients calculated were very high, and the best values were those of BZTcin1, BZTcin2 and BZTcin3, also attributable to the hyperchromic shift of the absorption spectra. For both series, the excellent absorption capacity of ultraviolet radiation can be traced back to the high π-type conjugation that characterizes them.
With `COc1cc(/C=N/NC(=O)c2nc3ccccc3s2)ccc1O` [BZTidr6, (E)-N′-(3-methoxy-4-hydroxybenzylidene)benzo[d]thiazole-2-carbohydrazide] the “ε (molar extinction coefficient)” value was 22071.63.
In the case of `O=S(=O)(O)c1ccc2nc(-c3ccccc3)[nH]c2c1` [PBSA, 2-phenyl-1-H-benzimidazole-5-sulfonic acid, reference compound], the “ε (molar extinction coefficient)” value is reported as 23881.86.

Same assay, conditions: solution in MeOH-DMSO, 290–400 nm
`COc1cc(/C=N/NC(=O)c2nc3ccccc3s2)ccc1O` [BZTidr6, (E)-N′-(3-methoxy-4-hydroxybenzylidene)benzo[d]thiazole-2-carbohydrazide] gave a λmax of 344.8 nm.
In the case of `O=S(=O)(O)c1ccc2nc(-c3ccccc3)[nH]c2c1` [PBSA, 2-phenyl-1-H-benzimidazole-5-sulfonic acid, reference compound], the λmax is reported as 302.0 nm and 302 nm.

System: not listed separately
Test: In vitro filtering parameters of O/W sunscreen formulation containing 3% compound (modified Diffey-Robson, PMMA plates)
Conditions: 3% in formulation, before irradiation
Source text: All synthesized compounds were formulated at 3% and their photoprotective efficacy, determined by spectrophotometric measurements using the modified Diffey-Robson method, was compared with that of the lead compound PBSA (used at 3% in the same formulation) and using the base without active as a control (Table 2).
The synthesized compounds were incorporated at a concentration of 3% in a typical oil-in-water sunscreen formulation, to evaluate the filtering parameters, and have the following ingredient composition:
INCI (International Nomenclature Cosmetic Ingredients): aqua, glycerin, Euxyl PE 9010, xanthan gum, Tribehenin PEG-20 Esters, cetearyl alcohol, dicaprylyl carbonate, PPG-26-Buteth-26 (and) PEG-40 Hydrogenated Castor Oil (and) water, C12-C15 Alkyl Benzoate, and Sodium hydroxide (sol. 10%).
As previously reported the protocol indicates to spread 32.5 mg of each formulation on 25 cm^2 PMMA plates with the fingers. Each formulation was tested in triplicate, and five measurements were recorded for each dish, following a 15–30 min incubation in the dark at room temperature. UV transmittance data was recorded using a UV-VIS spectrophotometer in the range 290–400 nm. The blank plate, SPF, UVA-PF and critical wavelength were obtained by SPF Calculator software (version 2.1), Shimadzu, Milan, Italy).
Work on `COc1cc(/C=N/NC(=O)c2nc3ccccc3s2)ccc1O` [BZTidr6, (E)-N′-(3-methoxy-4-hydroxybenzylidene)benzo[d]thiazole-2-carbohydrazide] yielded an SPF of 1.24, a UVA/UVB of 1.06 and a UVAPF0 of 1.36. It also gave a λc of 389 nm.
`O=S(=O)(O)c1ccc2nc(-c3ccccc3)[nH]c2c1` [PBSA, 2-phenyl-1-H-benzimidazole-5-sulfonic acid, reference compound] showed an SPF of 1.91, a UVA/UVB of 0.67 and a UVAPF0 of 1.13. It also gave a λc of 357 nm.

System: not listed separately
Test: Photostability study of 3% formulation (post-irradiation filtering parameters)
Conditions: 3% in formulation, post irradiation
Source text: To outline the efficacy and safety profile of a sunscreen formulation, it is essential to provide data relating to photostability. It is possible to provide photodegradation data by recording, pre- and post-irradiation, the transmittance of PMMA plates with finger-coat formulations subjected to a dose of UVA capable of causing erythema, according to the criteria of Garoli et al.. By means of Equations (2) and (3) it was possible to evaluate the residual percentage of SPF in vitro and of UVA-PF for all the prepared formulations. Of greatest interest are the values obtained for the derivatives BZTcin2 and BZTcin4.
To determine the photostability, the previously reported method was adopted, which consists in preparing each plate as mentioned above and subjecting it to solar irradiation quantified as the minimum dose of UVA equivalent to an effective radiant exposure of erythema. The protocol stipulates that, before and after exposure to sunlight, the transmission of the sun protection layer in the range of 290–400 nm is recorded.
Using Equations (2) and (3) below, the residual percentage of SPF in vitro (% SPFeff.) and UVA-PF (% UVA-PFeff.) have been obtained, which, if greater than or equal to 80, can classify a filter as photostable. %SPFeff. = in vitro SPFafter/in vitro SPFbefore × 100(2) %UVA − PFeff. = UVA − PFafter/UVA − PFbefore × 100(3)
For `COc1cc(/C=N/NC(=O)c2nc3ccccc3s2)ccc1O` [BZTidr6, (E)-N′-(3-methoxy-4-hydroxybenzylidene)benzo[d]thiazole-2-carbohydrazide], the SPF was 1.24, the UVA/UVB was 1.06 and the UVAPF was 1.36. The λc was 389 nm.
In the case of `O=S(=O)(O)c1ccc2nc(-c3ccccc3)[nH]c2c1` [PBSA, 2-phenyl-1-H-benzimidazole-5-sulfonic acid, reference compound], the SPF is reported as 1.98, the UVA/UVB is reported as 0.67 and the UVAPF is reported as 1.13. For the same compound, the λc was 355 nm.

System: HaCat keratinocytes
Test: Cell growth inhibition assay, HaCat
Format: cell-based, human
Conditions: 24 h incubation, cell count
Experimental: All synthesized compounds were tested in order to evaluate their in vitro antiproliferative activity. The human melanoma Colo-38 cell line was selected as a tumor skin model, while the immortalized human HaCaT keratinocytes were chosen as a control for the evaluation of the cytotoxicity towards non-cancerous cells and of the selectivity towards tumor cell lines. […] The selectivity index (SI) was also calculated and is the ratio between the IC50 of a given compound towards the non-cancerous cell line and the IC50 of the same compound towards the tumor cell line.
Cell growth inhibition assays were carried out using human melanoma Colo-38 cells and skin HaCat keratinocytes cells. Human melanoma Colo-38 cells were kindly provided by Dr. Patrizio Giacomini (Laboratory of Immunology, Regina Elena Institute, Rome, Italy). HaCat cells were kindly provided by Istituto Zooprofilattico Sperimentale della Lombardia e dell’Emilia Romagna, Brescia, Italy. Cell lines were seeded using concentrations of 40,000 cells/mL and 25,000 cells/mL, respectively. Colo-38 cells were maintained in RPMI 1640, supplemented with 10% fetal bovine serum (FBS), penicillin (100 Units mL^−1), and streptomycin (100 µg mL^−1). HaCat cells were maintained in DMEM, supplemented with 10% fetal bovine serum (FBS), penicillin (100 Units mL^−1), streptomycin (100 µg mL^−1) and glutamine (2 mM); the incubation was performed at 37 °C in a 5% CO2 atmosphere. Tested compounds were dissolved in MeOH/DMSO (1:1) to obtain 50 mM stock solutions and diluted before cell treatment in MeOH 100%. The tested compounds were added at serial dilutions to the cell cultures (from 0.1 to 100 µM) and incubated for 24 h further. Cells were then harvested, suspended in physiological solution, and counted with a Z2 Coulter Counter (Coulter Electronics, Hialeah, FL, USA). The cell number/mL and the IC50 values were determined when untreated cells were in the log phase of cell growth. Cells treated with vehicles and untreated cells were placed in each plate.
`N.N.[Cl][Pt][Cl]` [Cisplatin, reference compound] showed an IC50 of 2 ± 0.4 µM.

— paper PMC9822352, “Design, Synthesis and Evaluation of New Multifunctional Benzothiazoles as Photoprotective, Antioxidant and Antiproliferative Agents” (Molecules, 2022)
